In patent US12178224B1, “Use of gamma-quaternary ammonium butyrate compound in preparation of an animal feed additive” (ANIPHA TECHNOLOGIES PTY LTD, priority 2019, dated 2024):

How the values were obtained:
porkers = experiment: Effect on the production performance of porkers (breeding test); type: in vivo; conditions: 1000 ppm in basal diet, 28 days; for FCR (feed conversion ratio): ADFI/ADG
Source text: 90 head of “duroc×landrace×Large Yorkshire” three-way cross lean-type pigs with similar weights having an average weight of 80 kg were randomly divided into 3 treatment groups, each group having 3 repetitions, and each repetition having 10 pigs, half male and half female. The pigsty and appliances were sterilized before testing. During the test, the piglets were fed in separate pigpens under the same feeding and management condition in the same pigsty. During the test, the test pigs ate and drank freely, and were fed twice a day. Each test group is a control group (Group I) and test groups II to III, respectively. Wherein, the control group was fed with a basal diet only, and the test groups II to III were fed with diets that were supplemented with 1000 ppm of different γ-quaternary ammonium butyrate compounds on the basis of the basal diet, specifically as shown in Table 1.
During the entire feeding process, no additional antioxidant components or growth promoters were added for each test group. The test period is 28 days, with each repetition as a unit, the pigs were weighed on the 28th day of the test after not stopping water but stopping feeding for 12 hours to calculate the average daily feed intake (ADFI, g/d*head), average daily gain (ADG, g/d*head) and feed conversion ratio (FCR) for each test group. The calculation formulas are as follows: Average daily feed intake=(total amount of feeds-remaining amount of feeds)/(test days×number of pigs per repetition); Average daily gain=(average weight at the end of the test-average weight at the beginning of the test)/test days; Feed conversion ratio=average daily feed intake/average daily gain.

broilers = experiment: Effect on the production performance of broilers (breeding test); type: in vivo, Chinese three-yellow-feather broilers; conditions: 600 ppm in basal diet, 20 days; for FCR (feed conversion ratio): ADFI/ADG
Method: A single-factor random design was adopted for the test. 360 of one-day-old Chinese three-yellow-feather broilers with similar weights having an average weight of 50 g were randomly divided into 3 treatment groups, each group having 6 repetitions, half male and half female, and each repetition having 20 Chinese three-yellow-feather broilers. The henhouse and appliances were sterilized before testing. During the test, the cage rearing was carried out in the same henhouse under the same feeding and management condition. The basal diet is mainly a corn-soybean meal, and no additional antioxidant components or growth promoters were added during the entire feeding process. Each test group is a control group (Group I) and test groups II to III, respectively. Wherein, the control group was fed with the basal diet only, and the test groups II to III were fed with basal diets that were added with 600 ppm of different γ-quaternary ammonium butyrate compounds.
The test period was 20 days in total. The test broilers were free to drink and eat, and were fed twice a day. With each repetition as a unit, the test broilers were weighed at the age of 21 days (stopping feeding for 12 hours, without stopping water) to count the consumption of the test broilers, calculate the average daily feed intake (ADFI, g/d*number of broilers), average daily gain (ADG, g/d*number of broilers) and feed conversion ratio (FCR) of each group of test broilers. The calculation formulas are as follows: Feed conversion ratio (FCR)=average daily feed intake/average daily gain.

tilapia = conditions: L-carnitine in basal diet, compared with the blank Control group; cited from earlier work

Structure (SMILES) | ADFI (average daily feed intake) (porkers) [g/d * head] | ADG (average daily gain) (porkers) [g/d * head] | FCR (feed conversion ratio) (porkers) | ADFI (average daily feed intake) (broilers) | ADG (average daily gain) (broilers) | FCR (feed conversion ratio) (broilers) | weight gain rate reduced (tilapia) [%]
C[N+](C)(C)C[C@H](O)CC(=O)OCc1ccccc1 [benzyl L-carnitine chloride] | 2560 | 790 | 3.24 | 32.18 g/d * number of broilers | 13.46 g/d * number of broilers | 2.39 | 
CCOC(=O)C[C@@H](O)C[N+](C)(C)C [ethyl L-carnitine bromide, ethyl (R)-3-hydroxy-4-(trimethylammonium) butyrate bromide] | 2624 | 788 | 3.33 | 31.34 g/d * number of broilers | 13.00 g/d * number of broilers | 2.41 | 
C[N+](C)(C)C[C@H](O)CC(=O)[O-] [L-carnitine] |  |  |  |  |  |  | 1.2
